Source: article PMC8760490, “Discovery of novel furanylbenzamide inhibitors that target oncogenic tyrosine phosphatase SHP2 in leukemia cells” (The Journal of Biological Chemistry, 2021)

Experiments:
Format in all cases: biochemical
[1] = biological target: T1, full-length SHP2-E76K oncogenic mutant (Homo sapiens, UniProt Q06124, E76K); test: DiFMUP fluorescence phosphatase inhibition assay, SHP2-E76K; details: for IC50: DiFMUP at Km (20 μM), 10-point dose–response, pH 6.0
T1 construct: Recombinant human full-length SHP2 (1–594) WT and E76K mutants; made in house
T1 sequence (Q06124 1-593 E76K): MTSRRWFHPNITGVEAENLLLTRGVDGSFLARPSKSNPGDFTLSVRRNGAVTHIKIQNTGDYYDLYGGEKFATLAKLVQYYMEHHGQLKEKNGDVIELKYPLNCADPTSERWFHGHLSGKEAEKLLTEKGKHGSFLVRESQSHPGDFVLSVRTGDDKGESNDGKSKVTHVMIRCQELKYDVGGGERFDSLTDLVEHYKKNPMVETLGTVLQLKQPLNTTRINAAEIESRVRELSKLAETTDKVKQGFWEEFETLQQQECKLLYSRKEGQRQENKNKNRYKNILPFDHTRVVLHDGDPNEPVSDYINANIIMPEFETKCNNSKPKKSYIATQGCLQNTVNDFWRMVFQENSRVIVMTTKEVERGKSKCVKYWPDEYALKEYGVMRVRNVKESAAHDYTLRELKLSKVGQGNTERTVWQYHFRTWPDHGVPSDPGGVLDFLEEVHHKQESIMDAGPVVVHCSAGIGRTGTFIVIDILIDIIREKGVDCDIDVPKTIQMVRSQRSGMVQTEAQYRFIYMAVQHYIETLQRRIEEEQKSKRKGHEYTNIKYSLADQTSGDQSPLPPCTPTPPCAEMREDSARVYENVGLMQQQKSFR
Source text: (§1) To test the synthesized compounds for their potential to inhibit SHP2 activity, a fluorescence intensity-based assay using 6,8-difluoro-4-methylumbelliferyl phosphate (DiFMUP) as the substrate was adapted for three recombinant SHP2 constructs: (1) the SHP2 catalytic domain (SHP2cat; residues 248–527), (2) the full-length SHP2-E76K oncogenic mutant, and (3) the full-length SHP2 WT (SHP2-WT). The recombinant SHP2 proteins were expressed and purified as described previously ([36]). A dually phosphorylated peptide derived from the insulin receptor substrate 1 (IRS-1) served as a surrogate binding protein and was used to activate SHP2-WT ([30], [36]). […] Michaelis–Menten experiments to determine the DiFMUP Michaelis–Menten constant (Km) for each SHP2 construct were performed as described previously ([36]) and yielded the following values: SHP2-WT, Km = 60 μM; SHP2-E76K, Km = 20 μM; and SHP2cat, Km = 20 μM. Relative maximum rates (Vmax) of the DiFMUP reactions expressed as relative fluorescence units per minute (RFU/min) were as follows: SHP2-WT, Vmax = 871 RFU/min; SHP2-E76K, Vmax = 2730 RFU/min; and SHP2cat, Vmax = 2912 RFU/min. IC50 values for each compound were determined from initial rates in 10-point dose–response assays using DiFMUP at a concentration corresponding to its Km value for the respective SHP2 construct. […] Replacements for the benzothiophenone were explored using analog #10.
(§2) Recombinant human full-length SHP2 (1–594) WT and E76K mutants, as well as the SHP2cat (248–527), were expressed and purified as described before ([36], [41]). Recombinant human PTP1B (1–300) and the codon-optimized STEP (280–566) catalytic domains were cloned into PET-15b and expressed as N-His-tagged fusion proteins. For expression, transformed BL21(DE3) cells were grown and induced similar as described for SHP2. Collected cells were resuspended in lysis buffer (25 mM Tris, pH 7.5, 300 mM NaCl, 50 mM imidazole, and 10% glycerol) with 100 mg/l RNaseA and were lysed with two passages using a microfluidizer. The lysate was clarified by centrifugation at 15,000g for 50 min and applied to nickel–nitrilotriacetic acid resin. The column resin was washed, and the PTP1B or STEP protein was eluted in lysis buffer at 300 mM imidazole. The PTP1B or STEP protein was further purified by S75 size-exclusion chromatography in 50 mM Tris, pH 7.5, 50 mM NaCl. The eluted peak fractions were supplemented with tris(2-carboxyethyl)phosphine to 10 mM, concentrated by ultrafiltration, and stored at −80 °C. The purified yield of PTP1B was 33 mg/l cell culture; the yield of STEP was 16 mg/l cell culture.
(§3) SHP2 inhibitors were tested at RT in a 384-well plate format standard phosphatase fluorescence intensity assay using DiFMUP (Invitrogen/Thermo Fisher Scientific) as a substrate and a total reaction volume of 25 μl. SHP2 inhibitors or vehicle (DMSO) were spotted in triplicate into a black Greiner FLUOTRAC 200 384-well microplate (catalog no.: 781076; Greiner) for a 10-point dose–response assay using an Echo 555 Liquid Handler (Labcyte, Inc). PTP working solutions were prepared at a 0.625 nM concentration (for a final concentration of 0.5 nM) in buffer containing 50 mM Bis–Tris, pH 6.0, 50 mM NaCl, 5 mM DTT, and 0.01% Tween-20. Prior to the assay, a dually phosphorylated IRS-1 peptide (625 nM [500 nM final] ([30])) was added to full-length WT SHP2 working solutions and incubated for 20 min. DiFMUP working solutions at 5× final concentration were prepared in 50 mM Bis–Tris, pH 6.0, 50 mM NaCl, and 0.01% Tween-20. About 20 μl of PTP working solution was dispensed into the microplate and incubated with inhibitor for 20 min at RT. […] The reaction was initiated by addition of 5 μl DiFMUP working solutions. Fluorescence intensity was measured in kinetic mode (every minute for 7 or 10 min) using a Tecan Spark Multimode Microplate Reader (Tecan) with an excitation wavelength of 360 nm and an emission wavelength of 460 nm. […]

[2] = biological target: T2, full-length SHP2 WT (SHP2-WT) (Homo sapiens, UniProt Q06124); test: DiFMUP fluorescence phosphatase inhibition assay, SHP2-WT activated with IRS-1 peptide; details: DiFMUP at Km (60 μM), pH 6.0
T2 construct: Recombinant human full-length SHP2 (1–594) WT and E76K mutants; made in house
Source text: as §1, §2, §3

[3] = biological target: T3, SHP2 catalytic domain (SHP2cat; residues 248–527) (Homo sapiens, UniProt Q06124); test: DiFMUP fluorescence phosphatase inhibition assay, SHP2cat; details: DiFMUP at Km (20 μM), pH 6.0; read-out: SHP2cat; IC50
T3 construct: the SHP2 catalytic domain (SHP2cat; residues 248–527); made in house
T3 sequence (Q06124 248-527): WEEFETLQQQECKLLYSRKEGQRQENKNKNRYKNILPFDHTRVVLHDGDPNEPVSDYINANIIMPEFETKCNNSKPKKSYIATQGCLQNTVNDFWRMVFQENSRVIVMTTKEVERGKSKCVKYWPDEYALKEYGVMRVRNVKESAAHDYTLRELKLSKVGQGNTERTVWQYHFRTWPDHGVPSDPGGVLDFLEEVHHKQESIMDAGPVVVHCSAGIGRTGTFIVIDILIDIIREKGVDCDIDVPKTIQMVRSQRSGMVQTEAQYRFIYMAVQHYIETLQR
Source text: as §1, §2, §3

Row | Structure (SMILES) | IC50 [1] [µM] | IC50 [2] [µM] | IC50 [3] [µM] | loss in potency compared with #01 ([1]; E76K IC50) [fold]
1 | O=C(NCCO)c1cc(-c2ccc(/C=C3\Sc4ccccc4C3=O)o2)ccc1O [SBI-1457, (Z)-2-Hydroxy-N-(2-hydroxyethyl)-5-(5-((3-oxobenzo[b]thiophen-2(3H)-ylidene)methyl)furan-2-yl)benzamide] | > 100 | > 100 | – | –
2 | O=C1CCCC1=Cc1ccc(-c2ccc(O)c(C(=O)O)c2)o1 [SBI-3191, 2-Hydroxy-5-(5-((2-oxocyclopentylidene)methyl)furan-2-yl)benzoic acid] | 6 | 24 | 7.4 | –
3 | CN1CCN(C(=O)c2cc(-c3ccc(/C=C4\Sc5ccccc5C4=O)o3)ccc2O)CC1 [SBI-2125, (Z)-2-((5-(4-Hydroxy-3-(4-methylpiperazine-1-carbonyl)phenyl)furan-2-yl)methylene)benzo[b]thiophen-3(2H)-one] | > 100 | > 100 | – | –
4 | O=C1/C(=C/c2ccc(-c3ccc(O)c(C(=O)N4CCNCC4)c3)o2)Sc2ccccc21 [SBI-2124, (Z)-2-((5-(4-Hydroxy-3-(piperazine-1-carbonyl)phenyl)furan-2-yl)methylene)benzo[b]thiophen-3(2H)-one] | 91 | > 100 | – | –
5 | O=C1/C(=C/c2ccc(-c3ccc(O)c(C(=O)N4CCCCC4)c3)o2)Sc2ccccc21 [SBI-2131, (Z)-2-((5-(4-Hydroxy-3-(piperidine-1-carbonyl)phenyl)furan-2-yl)methylene)benzo[b]thiophen-3(2H)-one] | 15 | 52 | 4.3 | –
6 | CC(C)NC(=O)c1cc(-c2ccc(/C=C3\Sc4ccccc4C3=O)o2)ccc1O [SBI-0287, (Z)-2-Hydroxy-N-isopropyl-5-(5-((3-oxobenzo[b]thiophen-2(3H)-ylidene)methyl)furan-2-yl)benzamide] | 20 | 53 | – | –
7 | Nc1cccc(NC(=O)c2cc(-c3ccc(/C=C4\Sc5ccccc5C4=O)o3)ccc2O)c1 [SBI-2126, (Z)-N-(3-Aminophenyl)-2-hydroxy-5-(5-((3-oxobenzo[b]thiophen-2(3H)-ylidene)methyl)furan-2-yl)benzamide] | 7.2 | 18 | 5 | –
8 | O=C(O)c1cc(-c2ccc(/C=C3\Oc4ccccc4C3=O)o2)ccc1O [SBI-0165, (Z)-2-Hydroxy-5-(5-((3-oxobenzofuran-2(3H)-ylidene)methyl)furan-2-yl)benzoic acid] | 7.2 | 13 | 2.4 | –
9 | O=C(Nc1ccccc1)c1cc(-c2ccc(/C=C3\Sc4ccccc4C3=O)o2)ccc1F [SBI-2348, (Z)-2-Fluoro-5-(5-((3-oxobenzo[b]thiophen-2(3H)-ylidene)methyl)furan-2-yl)-N-phenylbenzamide] | > 100 | > 100 | – | –
10 | COc1ccc(-c2ccc(/C=C3\Sc4ccccc4C3=O)o2)cc1C(=O)Nc1ccccc1 [SBI-2349, (Z)-2-Methoxy-5-(5-((3-oxobenzo[b]thiophen-2(3H)-ylidene)methyl)furan-2-yl)-N-phenylbenzamide] | 84 | 87 | – | –
11 | O=C(NNc1ccccc1)c1cc(-c2ccc(/C=C3\Sc4ccccc4C3=O)o2)ccc1O [SBI-2128, (Z)-2-Hydroxy-5-(5-((3-oxobenzo[b]thiophen-2(3H)-ylidene)methyl)furan-2-yl)-N′-phenylbenzohydrazide] | 11 | 14 | 3.1 | –
12 | O=C(NCc1ccccc1)c1cccc(-c2ccc(/C=C3\Sc4ccccc4C3=O)o2)c1 [SBI-2129, (Z)-N-benzyl-3-(5-((3-oxobenzo[b]thiophen-2(3H)-ylidene)methyl)furan-2-yl)benzamide] | 65 | > 100 | – | –

Other lines, results leading:

Row | IC50 [1] [µM] | IC50 [2] [µM] | IC50 [3] [µM] | loss in potency compared with #01 ([1]; E76K IC50) [fold] | Structure (SMILES)
13 | > 100 | > 100 | – | – | O=C1/C(=C/c2ccc(-c3ccccc3)o2)Sc2ccccc21 [SBI-3570, (Z)-2-((5-phenylfuran-2-yl)methylene)benzo[b]thiophen-3(2H)-one]
14 | 10 | 15 | 4.5 | – | O=C(O)c1cc(-c2ccc(C=C3Cc4ccccc4C3=O)o2)ccc1O [SBI-3204, 2-Hydroxy-5-(5-((1-oxo-1,3-dihydro-2H-inden-2-ylidene)methyl)furan-2-yl)benzoic acid]
15 | 39 | 56 | – | – | O=C1CCCCC1=Cc1ccc(-c2ccc(O)c(C(=O)O)c2)o1 [SBI-3194, 2-Hydroxy-5-(5-((2-oxocyclohexylidene)methyl)furan-2-yl)benzoic acid]
16 | 52 | 62 | – | – | O=C(Nc1ccccc1)c1cccc(-c2ccc(/C=C3\Sc4ccccc4C3=O)o2)c1 [SBI-5923, (Z)-3-(5-((3-Oxobenzo[b]thiophen-2(3H)-ylidene)methyl)furan-2-yl)-N-phenylbenzamide]
17 | > 100 | > 100 | – | – | O=C(Nc1ccccc1)c1cc(-c2ccco2)ccc1O [SBI-4232, 5-(Furan-2-yl)-2-hydroxy-N-phenylbenzamide]
18 | 79 | > 100 | – | ~165 | O=C1/C(=C/c2ccc(-c3ccc(O)cc3)o2)Sc2ccccc21 [SBI-4167, (Z)-2-((5-(4-Hydroxyphenyl)furan-2-yl)methylene)benzo[b]thiophen-3(2H)-one]
